This is an account of results in patent US10954216B2, “BMP-signal-inhibiting compound” (RIKEN, priority 2016, dated 2021).

Assay [1] deals with human ALK2 (Homo sapiens (Human), UniProt Q04771). Kind of assay: ALK2 enzyme inhibitory effect (33P-ATP kinase assay, Reaction Biology). The assay is classed as biochemical. The conditions noted are these: ALK2, 10 μM ATP, 20 μM casein. An excerpt: (§1) ALK Enzyme Inhibitory Effect
(§2) Evaluation conditions were described in the following web pages. http://www.reactionbiology.corrilwebapps/site/Kinase_Assay_Protocol.aspx http://www.reactionbiology.corrilwebapps/site/KinaseDetail.aspx?page=Kinases&id=1

Assay [2] has as its system BMP signal in MDA-231-D-BREFluc/Rluc cells. Kind of assay: BMP signal inhibitory effect (AlphaScreen SureFire SMAD1 p-Ser463/465, BMP-6 stimulation). In kind it is cell-based. Summed up: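 MDA-231-D-BREFluc/Rluc cells were pretreated with compound for 2 h at 37° C, then stimulated with BMP-6 for 30 min. SMAD1 p-Ser463/465 in lysates was measured by AlphaScreen SureFire.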
On the technique in general: Alpha assays give light when donor and acceptor beads are brought close together.

Assay [3] has as its target human ALK6 (Homo sapiens (Human), UniProt O00238). Nature of the assay: ALK6 enzyme inhibitory effect (33P-ATP kinase assay, Reaction Biology). In kind it is biochemical. Conditions: for inhibition at 0.3 µM: read-out: Inhibition rate at 300 nM; for inhibition at 0.37 µM: ALK6, test compound 370 nM (asterisk footnote), read-out: inhibition rate at 370 nM.
Source text: as §1, §2

The target of assay [4] is human ALK3 (Homo sapiens (Human), UniProt P36894). Kind of assay: ALK3 enzyme inhibitory effect (33P-ATP kinase assay, Reaction Biology). In kind it is biochemical. The conditions noted are these: for inhibition at 0.3 µM: read-out: Inhibition rate at 300 nM; for inhibition at 0.37 µM: ALK3, test compound 370 nM (asterisk footnote), read-out: inhibition rate at 370 nM.
Sequence of human ALK3 (P36894 24-532): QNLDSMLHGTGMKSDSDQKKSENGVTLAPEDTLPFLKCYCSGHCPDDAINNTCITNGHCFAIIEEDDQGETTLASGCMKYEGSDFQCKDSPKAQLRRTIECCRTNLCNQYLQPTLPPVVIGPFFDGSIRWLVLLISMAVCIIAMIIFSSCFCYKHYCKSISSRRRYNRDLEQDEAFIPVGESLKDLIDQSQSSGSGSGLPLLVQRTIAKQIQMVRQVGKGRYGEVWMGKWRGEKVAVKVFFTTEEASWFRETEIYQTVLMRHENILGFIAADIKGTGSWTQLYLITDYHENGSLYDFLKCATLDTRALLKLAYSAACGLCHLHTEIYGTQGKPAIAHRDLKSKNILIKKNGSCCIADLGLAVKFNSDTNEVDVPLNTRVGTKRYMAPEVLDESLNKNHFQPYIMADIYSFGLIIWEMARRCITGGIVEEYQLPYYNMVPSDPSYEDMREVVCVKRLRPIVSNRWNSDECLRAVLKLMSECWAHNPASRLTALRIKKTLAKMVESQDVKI
Source text: as §1, §2

[5] abbreviates: BMP-6 stimulated MDA-231-D-BREFluc/Rluc cells, phospho-SMAD1 AlphaScreen, read-out: IC50.

SMILES strings stand for the structures. Read-outs that look alike come from different tables or passages of the source.

As usually defined, the IC50 is the concentration at which inhibition is half-maximal. Broadly, the inhibition is the relative decrease from the control value, in per cent.

Sequence of human ALK6 (O00238 14-502): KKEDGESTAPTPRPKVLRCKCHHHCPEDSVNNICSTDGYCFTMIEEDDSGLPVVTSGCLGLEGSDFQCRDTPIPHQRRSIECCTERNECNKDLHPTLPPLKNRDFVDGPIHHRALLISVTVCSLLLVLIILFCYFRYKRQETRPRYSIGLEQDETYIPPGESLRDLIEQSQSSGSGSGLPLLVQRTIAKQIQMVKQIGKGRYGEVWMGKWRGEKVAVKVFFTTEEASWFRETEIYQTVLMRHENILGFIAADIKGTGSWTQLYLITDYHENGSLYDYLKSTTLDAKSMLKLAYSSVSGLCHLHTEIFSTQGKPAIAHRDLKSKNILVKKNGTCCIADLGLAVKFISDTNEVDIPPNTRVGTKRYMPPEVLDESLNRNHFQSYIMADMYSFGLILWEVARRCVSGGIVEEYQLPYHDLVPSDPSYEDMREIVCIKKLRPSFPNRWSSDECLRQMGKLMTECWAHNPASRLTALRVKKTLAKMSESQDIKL
Sequence of human ALK2 (Q04771 21-509): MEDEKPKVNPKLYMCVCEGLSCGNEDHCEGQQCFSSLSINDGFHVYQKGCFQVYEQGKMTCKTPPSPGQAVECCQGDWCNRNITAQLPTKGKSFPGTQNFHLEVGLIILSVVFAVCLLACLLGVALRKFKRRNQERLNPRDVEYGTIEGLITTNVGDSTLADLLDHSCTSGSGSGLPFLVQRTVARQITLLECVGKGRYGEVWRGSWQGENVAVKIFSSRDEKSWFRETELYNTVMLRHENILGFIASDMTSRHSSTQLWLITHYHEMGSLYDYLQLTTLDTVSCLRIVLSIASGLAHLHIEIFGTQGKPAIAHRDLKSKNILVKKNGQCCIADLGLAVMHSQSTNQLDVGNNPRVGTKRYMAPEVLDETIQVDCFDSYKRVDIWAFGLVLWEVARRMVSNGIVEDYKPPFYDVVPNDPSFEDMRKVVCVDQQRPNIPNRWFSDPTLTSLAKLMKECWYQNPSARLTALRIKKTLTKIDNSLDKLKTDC

Regarding `CCn1cc(-c2ccnc(Nc3ccc(C(=O)N4CCN(c5ccc(F)cc5)CC4)cc3)n2)c(-c2cccnc2)n1` [Example 3, (4-((4-(1-ethyl-3-(pyridin-3-yl)-1H-pyrazol-4-yl)pyrimidin-2-yl)amino)phenyl)(4-(4-fluorophenyl)piperazin-1-yl)methanone], the IC50 is 24.2 nM in assay [1] and 26.7 nM in assay [2] (setting [5]). The inhibition at 0.3 µM in assay [3] (ALK6, test compound 300 nM) was determined as 79.6%; in assay [4] (ALK3, test compound 300 nM), 52%.
As for `CCn1cc(-c2ccnc(Nc3ccc(N4CCN(C5COC5)CC4)cc3)n2)c(-c2cccnc2)n1` [Example 15, 4-(1-ethyl-3-(pyridin-3-yl)-1H-pyrazol-4-yl)-N-(4-(4-(oxetan-3-yl)piperazin-1-yl)phenyl)pyrimidin-2-amine], the IC50 in assay [1] turned out to be 45 nM; in assay [2] (setting [5]) it was 30.1 nM. Further, the inhibition at 0.3 µM in assay [3] (ALK6, test compound 300 nM) amounted to 90.2%; in assay [4] (ALK3, test compound 300 nM), 51.4%.
Taken in the same sequence, the figures for `CCn1cc(-c2ccnc(Nc3ccc(N4CCN(CCOC)CC4)cc3)n2)c(-c2cccnc2)n1` [Example 17, 4-(1-ethyl-3-(pyridin-3-yl)-1H-pyrazol-4-yl)-N-(4-(4-(2-methoxyethyl)piperazin-1-yl)phenyl)pyrimidin-2-amine] were 54 nM, 22.6 nM, 88% and 50.4%.
On to `CCn1cc(-c2ccnc(Nc3ccc(N4CCN(Cc5ccccc5)CC4)cc3)n2)c(-c2cccnc2)n1` [Example 19, N-(4-(4-benzylpiperazin-1-yl)phenyl)-4-(1-ethyl-3-(pyridin-3-yl)-1H-pyrazol-4-yl)pyrimidin-2-amine], for which the 50% inhibitory concentration (IC50) in assay [1] came to 25 nM; in assay [2] (setting [5]), 23.3 nM. For the same molecule, the inhibition at 0.3 µM in assay [3] (ALK6, test compound 300 nM) was found to be 88.4%; in assay [4] (ALK3, test compound 300 nM), 59.3%.
As to `CCn1cc(-c2ccnc(Nc3ccc(N4CCCCC4)cc3)n2)c(-c2cccnc2)n1` [Example 49, 4-(1-ethyl-3-(pyridin-3-yl)-1H-pyrazol-4-yl)-N-(4-(piperidin-1-yl)phenyl)pyrimidin-2-amine], the IC50 in assay [1] was determined as 67 nM; in assay [2] (setting [5]), 28.1 nM. In addition, the inhibition at 0.3 µM in assay [3] (ALK6, test compound 300 nM) is 91.6%; in assay [4] (ALK3, test compound 300 nM), 52.2%.
For `COCCn1cc(-c2ccnc(Nc3ccc(N4CCNCC4)cc3)n2)c(-c2cccnc2)n1` [Example 71, 4-(1-(2-methoxyethyl)-3-(pyridin-3-yl)-1H-pyrazol-4-yl)-N-(4-(piperazin-1-yl)phenyl)pyrimidin-2-amine], in that order: 40 nM, 22.8 nM, 76% and 48%.
As for `CCn1cc(-c2ccnc(Nc3ccc4c(c3)CCN(C(C)=O)C4)n2)c(-c2cccnc2)n1` [Example 75, 1-(6-((4-(1-Ethyl-3-(pyridin-3-yl)-1H-pyrazol-4-yl)pyrimidin-2-yl)amino)-3,4-dihydroisoquinolin-2(1H)-yl)ethan-1-one], the results for the IC50 in assay [1] and in assay [2] (setting [5]) were 28 nM and 14.8 nM, respectively. Moreover, the inhibition at 0.3 µM was 92.9% in assay [3] (ALK6, test compound 300 nM) and 67.5% in assay [4] (ALK3, test compound 300 nM).
As to `c1cncc(-c2nn(C3COC3)cc2-c2ccnc(Nc3ccc(N4CCN(C5COC5)CC4)cc3)n2)c1` [Example 101, 4-(1-(oxetan-3-yl)-3-(pyridin-3-yl)-1H-pyrazol-4-yl)-N-(4-(4-(oxetan-3-yl)piperazin-1-yl)phenyl)pyrimidin-2-amine], the 50% inhibitory concentration (IC50) in assay [1] stood at 18 nM; in assay [2] (setting [5]), 70.8 nM. For the same molecule, the inhibition at 0.37 µM came out at 70.4% in assay [3] and 48.8% in assay [4].
On to `CCn1cc(-c2ccnc(Nc3ccc(N4CCN(CC(C)(C)O)CC4)cc3)n2)c(-c2cccnc2)n1` [Example 104, 1-(4-(4-((4-(1-ethyl-3-(pyridin-3-yl)-1H-pyrazol-4-yl)pyrimidin-2-yl)amino)phenyl)piperazin-1-yl)-2-methylpropan-2-ol], for which the values for the IC50 in assay [1] and in assay [2] (setting [5]) were 13.2 nM and 16.4 nM, respectively. For the same molecule, the inhibition at 0.3 µM was 93.5% in assay [3] (ALK6, test compound 300 nM) and 65.8% in assay [4] (ALK3, test compound 300 nM).
Regarding `CCn1cc(-c2ccnc(Nc3ccc4c(c3)CCN(CCOC)C4)n2)c(-c2cccnc2)n1` [Example 126, N-(4-(1-Ethyl-3-(pyridin-3-yl)-1H-pyrazol-4-yl)pyrimidin-2-yl)-2-(2-methoxyethyl)-1,2,3,4-tetrahydroisoquinolin-6-amine], the IC50 is 15 nM in assay [1] and 4 nM in assay [2] (setting [5]). For the same molecule, the inhibition at 0.3 µM in assay [3] (ALK6, test compound 300 nM) was 85%; in assay [4] (ALK3, test compound 300 nM), 59%.
As for `CCn1cc(-c2ccnc(Nc3ccc4c(c3)CCN(C)C4)n2)c(-c2cccnc2)n1` [Example 129, N-(4-(1-Ethyl-3-(pyridin-3-yl)-1H-pyrazol-4-yl)pyrimidin-2-yl)-2-methyl-1,2,3,4-tetrahydroisoquinolin-6-amine], the IC50 is 33 nM in assay [1] and 1.8 nM in assay [2] (setting [5]). Moreover, the inhibition at 0.3 µM is 92.2% in assay [3] (ALK6, test compound 300 nM) and 55.7% in assay [4] (ALK3, test compound 300 nM).
Taken in the same sequence, the figures for `CC(C)(C)n1cc(-c2ccnc(Nc3ccc(N4CCNCC4)cc3)n2)c(-c2cccnc2)n1` [Example 135] were 54 nM, 11.7 nM, 77% and 60%.
For `c1cncc(-c2nn(C3COC3)cc2-c2ccnc(Nc3ccc(N4CCNCC4)cc3)n2)c1` [Example 137, 4-(1-(Oxetan-3-yl)-3-(pyridin-3-yl)-1H-pyrazol-4-yl)-N-(4-(piperazin-1-yl)phenyl)pyrimidin-2-amine], in that order: 46.2 nM, 35.6 nM, 85.3% and 47.9%.
Taken in the same sequence, the figures for `c1ccc(CCn2cc(-c3ccnc(Nc4ccc(N5CCNCC5)cc4)n3)c(-c3cccnc3)n2)cc1` [Example 142, 4-(1-Phenethyl-3-(pyridin-3-yl)-1H-pyrazol-4-yl)-N-(4-(piperazin-1-yl)phenyl)pyrimidin-2-amine] were 87.2 nM, 7.3 nM, 92.6% and 62.7%.
In the case of `CCn1cc(-c2ccnc(Nc3ccc(N4CC5CCC(C4)N5)nc3)n2)c(-c2cccnc2)n1` [Example 144, N-(6-(3,8-Diazabicyclo[3.2.1]octan-3-yl)pyridin-3-yl)-4-(1-ethyl-3-(pyridin-3-yl)-1H-pyrazol-4-yl)pyrimidin-2-amine], half-maximal inhibition in assay [2] (IC50) was put at 16.7 nM. In addition, the inhibition at 0.3 µM in assay [3] is 86%; in assay [4], 46%.
For the molecule `FC(F)Cn1cc(-c2ccnc(Nc3ccc(N4CCNCC4)cc3)n2)c(-c2cccnc2)n1` [Example 149, 4-(1-(2,2-Difluoroethyl)-3-(pyridin-3-yl)-1H-pyrazol-4-yl)-N-(4-(piperazin-1-yl)phenyl)pyrimidin-2-amine], the IC50 was 62.5 nM in assay [1] and 9.1 nM in assay [2] (setting [5]). Further, the inhibition at 0.3 µM was found to be 86.5% in assay [3] (ALK6, test compound 300 nM) and 63.5% in assay [4] (ALK3, test compound 300 nM).
On to `CCn1cc(-c2ccnc(Nc3ccc(N4CCNCC4)cc3)n2)c(-c2cccnc2)n1` [Example 151, 4-(1-Ethyl-3-(pyridin-3-yl)-1H-pyrazol-4-yl)-N-(4-(piperazin-1-yl)phenyl)pyrimidin-2-amine], for which the IC50 in assay [2] (setting [5]) was 3.6 nM. Besides, the inhibition at 0.37 µM in assay [3] was 93%; in assay [4], 56.1%.
Regarding `CCn1cc(-c2ccnc(Nc3ccc(N4CCNCC4)c(F)c3)n2)c(-c2cccnc2)n1` [Example 152, 4-(1-Ethyl-3-(pyridin-3-yl)-1H-pyrazol-4-yl)-N-(3-fluoro-4-(piperazin-1-yl)phenyl)pyrimidin-2-amine], the IC50 in assay [1] stood at 15 nM; in assay [2] (setting [5]) it was 7.2 nM. The inhibition at 0.3 µM in assay [3] (ALK6, test compound 300 nM) was 82%; in assay [4] (ALK3, test compound 300 nM), 53%.
With `CCn1cc(-c2ccnc(Nc3ccc(N4CCNCC4)nc3)n2)c(-c2cccnc2)n1` [Example 155, 4-(1-Ethyl-3-(pyridin-3-yl)-1H-pyrazol-4-yl)-N-(6-(piperazin-1-yl)pyridin-3-yl)pyrimidin-2-amine], the figures for the IC50 in assay [1] and in assay [2] (setting [5]) were 57 nM and 8.5 nM, respectively. In addition, the results for the inhibition at 0.37 µM in assay [3] and in assay [4] were 86.5% and 48.8%, respectively.
As for `CCn1cc(-c2ccnc(Nc3ccc(C4CCNCC4)cc3)n2)c(-c2cccnc2)n1` [Example 162, 4-(1-Ethyl-3-(pyridin-3-yl)-1H-pyrazol-4-yl)-N-(4-(piperidin-4-yl)phenyl)pyrimidin-2-amine], the IC50 is 25 nM in assay [1] and 4.5 nM in assay [2] (setting [5]). Moreover, the inhibition at 0.3 µM in assay [3] (ALK6, test compound 300 nM) came to 94.2%; in assay [4] (ALK3, test compound 300 nM), 49.5%.
Regarding `CCn1cc(-c2ccnc(Nc3ccc(C4CC5CCC(C4)N5)cc3)n2)c(-c2cccnc2)n1` (stereo not shown) [Example 163, N-(4-(8-Azabicyclo [3.2.1]octan-3-yl)phenyl)-4-(1-ethyl-3-(pyridin-3-yl)-1H-pyrazol-4-yl)pyrimidin-2-amine], the IC50 in assay [2] is 4.9 nM. The inhibition at 0.3 µM in assay [3] was found to be 96.2%; in assay [4] it was 47.6%.
As to `CCn1cc(-c2ccnc(Nc3ccc(-c4cnn(C5CCNCC5)c4)cc3)n2)c(-c2cccnc2)n1` [Example 167, 4-(1-Ethyl-3-(pyridin-3-yl)-1H-pyrazol-4-yl)-N-(4-(1-(piperidin-4-yl)-1H-pyrazol-4-yl)phenyl)pyrimidin-2-amine], the IC50 in assay [1] amounted to 36.1 nM; in assay [2] (setting [5]), 12.4 nM. Besides, the inhibition at 0.3 µM in assay [3] (ALK6, test compound 300 nM) was found to be 92.2%; in assay [4] (ALK3, test compound 300 nM) it was 67.5%.
